# Data: patent publication US11981661B2, “Heterocyclic compounds” (Hoffmann-La Roche Inc., priority 2020, dated 2024)
# Biological target: T1, MAGL (Homo sapiens, UniProt Q99685)
# T1 sequence (Q99685 1-303): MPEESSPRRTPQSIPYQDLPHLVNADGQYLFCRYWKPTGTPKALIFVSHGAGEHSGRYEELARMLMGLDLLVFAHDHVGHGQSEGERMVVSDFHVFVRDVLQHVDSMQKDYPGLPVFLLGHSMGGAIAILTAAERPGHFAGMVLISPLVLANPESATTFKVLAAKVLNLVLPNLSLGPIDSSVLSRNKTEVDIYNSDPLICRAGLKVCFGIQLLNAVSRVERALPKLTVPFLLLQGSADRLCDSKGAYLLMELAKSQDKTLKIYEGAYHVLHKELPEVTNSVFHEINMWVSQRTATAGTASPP
# Experiment: 2-AG assay (MAGL inhibitory activity, hydrolysis of 2-arachidonoylglycerol followed by mass spectrometry)
# Format: biochemical
# Conditions: 50 pM MAGL, 8 μM 2-arachidonoylglycerol, 15 min preincubation, 30 min incubation at RT, concentration range 12.5 μM to 0.8 pM
# In short: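 Activity derived from the arachidonic acid/d8-arachidonic acid MS intensity ratio after acetonitrile quench. Reaction: 8 μM 2-AG substrate with 50 pM MAGL, 30 min at RT, following 15 min RT compound preincubation; buffer 50 mM TRIS, 1 mM EDTA, 0.01% Tween; final compound range 12.5 μM to 0.8 pM.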
row,Structure (SMILES),IC50 [nM]
1,"N#CC1(c2ccc(C3CN(C(=O)CC[C@@H]4COC(=O)N4)C3)cn2)CCC1 [Example 78, 1-[5-[1-[3-[(4R)-2-Oxooxazolidin-4-yl]propanoyl]azetidin-3-yl]-2-pyridyl]cyclobutane-carbonitrile]",981
2,"O=C(CC(O)Cc1cnn[nH]1)N1CC(c2ccc(C3(C(F)(F)F)CC3)cc2)C1 (centres unmarked) [Example 69, 3-Hydroxy-4-(1H-triazol-5-yl)-1-[3-[4-[1-(trifluoromethyl)cyclopropyl]phenyl]azetidin-1-yl]butan-1-one]",122
3,"O=C1CCC(CCC(=O)N2CC(c3ccc(CC(F)(F)F)cc3)C2)N1 (single isomer, unassigned) [Example 8, (+)- or (−)-5-[3-Oxo-3-[3-[4-(2,2,2-trifluoroethyl)phenyl]azetidin-1-yl]propyl]pyrrolidin-2-one]",26
4,"NC(=O)c1cc(Cl)ccc1Oc1ccc(C2CN(C(=O)CC[C@@H]3COC(=O)N3)C2)cn1 [Example 85, 5-Chloro-2-[[5-[1-[3-[(4R)-2-oxooxazolidin-4-yl]propanoyl]azetidin-3-yl]-2-pyridyl]oxy]benzamide]",123
5,"O=C1N[C@H](CCC(=O)N2CC(c3ccc([C@H]4CC[C@@H](C(F)(F)F)CC4)nc3)C2)CO1 (single isomer, unassigned) [Example 200]",1
6,"O=C1N[C@H](CCC(=O)N2CC3(CCC(Cc4ccc(C(F)(F)F)nc4)C3)C2)CO1 (single isomer, unassigned) [Example 210, (−)- or (+)-(4R)-4-[3-Oxo-3-[6-[[6-(trifluoromethyl)-3-pyridyl]methyl]-2-azaspiro[3.4]octan-2-yl]propyl]oxazolidin-2-one]",59
7,"O=C1N[C@H](CCC(=O)N2CC3(C2)CN(S(=O)(=O)c2ccc(OC(F)(F)F)cc2)C3)CO1 [Example 150, (4R)-4-[3-Oxo-3-[2-[4-(trifluoro-methoxy)phenyl]sulfonyl-2,6-diazaspiro[3.3]heptan-6-yl]propyl] oxazolidin-2-one]",2140
8,"O=C1CCC(CCC(=O)N2CC(c3ccc(-c4ccc(F)cc4F)cc3)C2)N1 (single isomer, unassigned; (+)) [Example 10, (+)-5-[3-[3-[4-(2,4-Difluorophenyl)phenyl]azetidin-1-yl]-3-oxo-propyl]pyrrolidin-2-one]",5
9,"O=C1N[C@H](CCC(=O)N2CC(c3ccc(Oc4nccc(C(F)(F)F)n4)cc3)C2)CO1 [Example 127, (4R)-4-[3-Oxo-3-[3-[4-[4-(trifluoro-methyl)pyrimidin-2-yl]oxyphenyl]azetidin-1-yl]propyl]oxazolidin-2-one]",1800
10,"O=C(CCc1cnn[nH]1)N1CC(c2ccc(C3(C(F)(F)F)CC3)cc2)C1 [Example 37, 3-(1H-1,2,3-Triazol-5-yl)-1-(3-(4-(1-(trifluoromethyl)cyclo-propyl)phenyl)azetidin-1-yl)propan-1-one]",339
11,"CC(C)(Oc1ccc(C2CN(C(=O)CC[C@@H]3COC(=O)N3)C2)cc1)C(F)(F)F [Example 25, (4R)-4-[3-Oxo-3-[3-[4-(2,2,2-trifluoro-1,1-dimethyl-ethoxy)phenyl]azetidin-1-yl]propyl]oxazolidin-2-one]",1
12,"CC1(CCC(=O)N2CC(c3ccc(Oc4cccc(Cl)c4)nc3)C2)CCC(=O)N1 (single isomer, unassigned) [Example 17, (−)- or (+)-5-[3-[3-[6-(3-Chlorophenoxy)-3-pyridyl]azetidin-1-yl]-3-oxo-propyl]-5-methyl-pyrrolidin-2-one]",≥ 12500
13,"O=C1N[C@H](CCC(=O)N2CC3(CC(Oc4ccc(C(F)(F)F)nn4)C3)C2)CO1 [Example 152, (4R)-4-[3-Oxo-3-[6-[6-(trifluoro-methyl)pyridazin-3-yl]oxy-2-azaspiro[3.3]heptan-2-yl]propyl] oxazolidin-2-one]",1410
14,"O=C1CCC(CCC(=O)N2CC(c3ccc(CC(F)(F)F)cc3)C2)N1 (single isomer, unassigned) [Example 7, (−)- or (+)-5-[3-Oxo-3-[3-[4-(2,2,2-trifluoroethyl)phenyl]azetidin-1-yl]propyl]pyrrolidin-2-one]",2580
15,"O=C1N[C@H](CCC(=O)N2CC(c3cnc(N4CCC(C(F)(F)F)C4)nc3)C2)CO1 (single isomer, unassigned) [Example 208, (−)- or (+)-(4R)-4-[3-Oxo-3-[3-[2-[3-(trifluoromethyl)pyrrolidin-1-yl]pyrimidin-5-yl]azetidin-1-yl]propyl]oxazolidin-2-one]",138
16,"O=C1N[C@H](COC(=O)N2CC(c3ccc(C4(C(F)(F)F)CC4)cc3)C2)CO1 [Example 56, [(4S)-2-Oxooxazolidin-4-yl]methyl 3-[4-[1-(trifluoromethyl)cyclopropyl]phenyl] azetidine-1-carboxylate]",5

row,Structure (SMILES),IC50 [nM]
1,"O=C1N[C@H](CCC(=O)N2CC(c3ccc(N(CC4CC4)c4ccccc4)nc3)C2)CO1 [Example 95, (4R)-4-[3-[3-[6-[N-(Cyclopropyl-methyl)anilino]-3-pyridyl]azetidin-1-yl]-3-oxo-propyl]oxazolidin-2-one]",0.35
2,"O=C1N[C@H](COC(=O)N2CC(OCc3ccc(C(F)(F)F)cc3F)C2)CO1 [Example 54, [(4S)-2-Oxooxazolidin-4-yl]methyl 3-[[2-fluoro-4-(trifluoromethyl)phenyl]methoxy] azetidine-1-carboxylate]",36
3,"O=C1N[C@H](CCC(=O)N2CC(c3ccc(C4CC(C(F)(F)F)C4)cc3)C2)CO1 (stereo partly drawn) [Example 133, (4R)-4-[3-Oxo-3-[3-[4-[3-(trifluoro-methyl)cyclobutyl]phenyl]azetidin-1-yl]propyl]oxazolidin-2-one]",2
4,"O=C1CCC(CCC(=O)N2CC(c3ccc(C4(C(F)(F)F)CC4)cc3)C2)N1 (single isomer, unassigned; (+)) [Example 6, (+)-5-[3-Oxo-3-[3-[4-[1-(trifluoromethyl)cyclopropyl]phenyl]azetidin-1-yl]propyl]pyrrolidin-2-one]",3
5,"O=C1N[C@H](CCC(=O)N2CC(c3ccc(N4CC(C(F)(F)F)C4)nc3)C2)CO1 [Example 161, (4R)-4-[3-Oxo-3-[3-[6-[3-(trifluoro-methyl)azetidin-1-yl]-3-pyridyl]azetidin-1-yl]propyl]oxazolidin-2-one]",65
6,"O=C1N[C@H](CCC(=O)N2CC(NCc3cc(C(F)(F)F)ccc3F)C2)CO1 [Example 156, (4R)-4-[3-[3-[[2-Fluoro-5-(trifluoro-methyl)phenyl]methylamino]azetidin-1-yl]-3-oxo-propyl] oxazolidin-2-one]",279
7,"O=C1N[C@H](CCC(=O)N2CC3(CCC(Cc4ccc(C(F)(F)F)nc4)CC3)C2)CO1 [Example 188, (4R)-4-[3-Oxo-3-[7-[[6-(trifluoro-methyl)-3-pyridyl]methyl]-2-azaspiro[3.5]nonan-2-yI]propyl] oxazolidin-2-one]",25
8,"O=C1N[C@H](CCC(=O)N2CC(c3ccc(C4CCS(=O)(=O)C4)cc3)C2)CO1 (stereo partly drawn) [Example 130, (4R)-4-[3-[3-[4-(1,1-Dioxothiolan-3-yl)phenyl]azetidin-1-yl]-3-oxo-propyl] oxazolidin-2-one]",251
9,"O=C1N[C@H](CCC(=O)N2CC(c3ncc(N4CCC(C(F)(F)F)C4)cn3)C2)CO1 (stereo partly drawn) [Example 106, (4R)-4-[3-Oxo-3-[3-[5-[3-(trifluoro-methyl)pyrrolidin-1-yl]pyrimidin-2-yl]azetidin-1-yl]propyl]oxazolidin-2-one]",729
10,"O=C1CCC(CCC(=O)N2CC(OCc3ccc(C(F)(F)F)cc3F)C2)N1 (single isomer, unassigned; (-)) [Example 1, (−)-5-[3-[3-[[2-Fluoro-4-(trifluoromethyl)phenyl]methoxy]azetidin-1-yl]-3-oxo-propyl]pyrrolidin-2-one]",3960
11,"CC(C)(C)c1ccc(C2CN(C(=O)CCC3CCC(=O)N3)C2)cc1 (single isomer, unassigned; (-)) [Example 3, (−)-5-[3-[3-(4-tert-Butylphenyl)azetidin-1-yl]-3-oxo-propyl]pyrrolidin-2-one]",273
12,"O=C1N[C@H](CCC(=O)N2CC3(CC(Cc4ccc(C(F)(F)F)nc4)C3)C2)CO1 [Example 125, (4R)-4-[3-Oxo-3-[6-[[6-(trifluoro-methyl)-3-pyridyl]methyl]-2-azaspiro[3.3]heptan-2-yl]propyl] oxazolidin-2-one]",9
13,"O=C1N[C@H](CCC(=O)N2CC3(CC(n4cnc(C5CC5)n4)C3)C2)CO1 [Example 185, (4R)-4-[3-[6-(3-Cyclopropyl-1,2,4-triazol-1-yl)-2-azaspiro [3.3]heptan-2-yl]-3-oxo-propyl] oxazolidin-2-one]",464
14,"O=C1N[C@H](CCC(=O)N2CC(c3ccc(N4CC(C(F)(F)F)C4)cc3)C2)CO1 [Example 100, (4R)-4-[3-Oxo-3-[3-[4-[3-(trifluoromethyl)azetidin-1-yl]phenyl]azetidin-1-yl]propyl]oxazolidin-2-one]",7
15,"O=C1N[C@H](CCC(=O)N2CC(c3ccc(Oc4nccc(C5CC5)n4)cc3)C2)CO1 [Example 80, (4R)-4-[3-[3-[4-(4-Cyclopropyl-pyrimidin-2-yl)oxyphenyl]azetidin-1-yl]-3-oxo-propyl] oxazolidin-2-one]",27
16,"CS(=O)(=O)c1cc(Cl)ccc1-c1ccc(C2CN(C(=O)CCC3CNC(=O)N3)C2)cc1 (single isomer, unassigned) [Example 217, (−)- or (+)-4-[3-[3-[4-(4-Chloro-2-methylsulfonyl-phenyl)phenyl]azetidin-1-yl]-3-oxo-propyl]imidazolidin-2-one]",33
